Test results as given in patent US20070032488A1, “6-Membered aryl and heteroaryl derivatives for treating viruses” (Genelabs Technologies, Inc., priority 2005, published 2007).

What follows are compounds tested on HCV replicon in ET (Huh-lucubineo-ET) cell line (screening for HCV RNA dependent RNA polymerase) (assay: Replicon Assay (luciferase reporter, ET cell line)). Conditions: Hepatitis C virus; tested at 12.5 μM; luciferase activity in ET replicon cells, relative to no compound control; read-out: % inhibition (of replication).
Assay type: cell-based
Experimental: A cell line, ET (Huh-lucubineo-ET) was used for screening of compounds of the present invention for HCV RNA dependent RNA polymerase. The ET cell line was stably transfected with RNA transcripts harboring a I389luc-ubi-neo/NS3-3′/ET; replicon with firefly luciferase-ubiquitin-neomycin phosphotransferase fusion protein and EMCV-IRES driven NS3-5B polyprotein containing the cell culture adaptive mutations (E1202G; T1280I; K1846T) (Krieger at al, 2001 and unpublished). The ET cells were grown in DMEM, supplemented with 10% fetal calf serum, 2 mM Glutamine, Penicillin (100 IU/mL)/Streptomycin (100 μg/mL), 1× nonessential amino acids, and 250 μg/mL G418 (“Geneticin”). They were all available through Life Technologies (Bethesda, Md.). The cells were plated at 0.5-1.0×10^4 cells/well in the 96 well plates and incubated for 24 hrs before adding nucleoside analogs. […] Luciferase activity was measured 48-72 hours later by adding a lysis buffer and the substrate (Catalog number Glo-lysis buffer E2661 and Bright-Glo leuciferase system E2620 Promega, Madison, Wis.). Cells should not be too confluent during the assay. Percent inhibition of replication was plotted relative to no compound control. Under the same condition, cytotoxicity of the compounds was determined using cell proliferation reagent, WST-1 (Roche, Germany). The compounds showing potent antiviral activities, but no significant cytotoxicities were chosen for further evaluation. For these determinations, a 10-point, 2-fold serial dilution for each compound was used which spans a concentration range of 1000 fold. IC50 and TC50 values were calculated by fitting % inhibition at each concentration to the following equation: % inhibition=100%/[(IC50/[I])b+1] where b is Hill's coefficient.
The % inhibition at a particular concentration was determined using the following equation: % Inhibition=100−[100*(Lum with inhibitor-bg)/(Lum with no inhibitor-bg)]
where bg was the background with no replicon cell, and Lum was the luminescence intensity of the reporter luciferase gene.

**Q.** Which inhibition at 12.5 µM does the source give for COc1ccc(-c2ccc(Cl)cc2)c(-c2ccc3cc(-c4ccc(C(=O)O)cc4C4CCCCC4)ccc3n2)c1 [Compound 1.8a, 3-cyclohexyl-4-(2-(3-methoxy-6-(4′-chlorophenyl)phenyl)quinolin-6-yl)benzoic acid] here?
**A.** The inhibition at 12.5 µM was 89%.

**Q.** Which inhibition at 12.5 µM does the source give for COCCOc1ccc(-c2ccc(Cl)cc2)c(-c2ccc3cc(-c4ccc(C(=O)O)cc4C4CCCCC4)ccc3n2)c1 [Compound 1.8b, 3-cyclohexyl-4-(2-(3-(2-methoxyethoxy)-6-(4′-chlorophenyl)phenyl)quinolin-6-yl)benzoic acid] here?
**A.** Its inhibition at 12.5 µM is 94%.

**Q.** Which inhibition at 12.5 µM does the source give for Cc1nc(C)c(-c2ccc3cc(-c4c(/C=C/C(=O)N5CCOCC5)cc(C(=O)O)cc4C4CCCCC4)ccc3n2)s1 [Compound 2.9a, 3-cyclohexyl-4-(2-(2,4-dimethylthiazol-5-yl)quinolin-6-yl)-5-((E)-3-morpholino-3-oxoprop-1-enyl)benzoic acid] here?
**A.** The inhibition at 12.5 µM was 65%.

**Q.** With Cc1nc(C)c(-c2ccc3cc(-c4c(/C=C/C(=O)N5CCCCC5)cc(C(=O)O)cc4C4CCCCC4)ccc3n2)s1 [Compound 2.9b, 3-cyclohexyl-4-(2-(2,4-dimethylthiazol-5-yl)quinolin-6-yl)-5-((E)-3-oxo-3-(piperidin-1-yl)prop-1-enyl)benzoic acid] as the compound, how does the inhibition at 12.5 µM read?
**A.** Its inhibition at 12.5 µM is 80%.

**Q.** With C#Cc1cc(C(=O)O)cc(C2CCCCC2)c1-c1ccc2nc(-c3sc(C)nc3C)ccc2c1 [Compound 4.4b, 3-cyclohexyl-5-ethynyl-4-(2-(2,4-dimethylthiazol-5-yl)quinolin-6-yl)benzoic acid] as the compound, how does the inhibition at 12.5 µM read?
**A.** Its inhibition at 12.5 µM is 87%.

**Q.** With Cc1nc(C)c(-c2ccc3cc(-c4c(C5CCCCC5)cc(C(=O)O)cc4[N+](=O)[O-])ccc3n2)s1 [Compound 7, 3-cyclohexyl-4-[2-(2,4-dimethyl-thiazol-5-yl)-quinolin-6-yl]-5-nitro-benzoic acid] as the compound, how does the inhibition at 12.5 µM read?
**A.** Its inhibition at 12.5 µM is 30%.

**Q.** With Cc1nc(C)c(-c2ccc3cc(-c4c(N)cc(C(=O)O)cc4C4CCCCC4)ccc3n2)s1 [Compound 8, 3-amino-5-cyclohexyl-4-[2-(2,4-dimethyl-thiazol-5-yl)-quinolin-6-yl]-benzoic acid] as the compound, how does the inhibition at 12.5 µM read?
**A.** The inhibition at 12.5 µM was 54%.

**Q.** Cc1nc(C)c(-c2ccc3cc(-c4c(CC(=O)N5CCOCC5)cc(C(=O)O)cc4C4CCCCC4)ccc3n2)s1 [Compound 9, 3-cyclohexyl-4-[2-(2,4-dimethyl-thiazol-5-yl)-quinolin-6-yl]-5-(2-morpholin-4-yl-2-oxo-ethyl)-benzoic acid] was tested. Which inhibition at 12.5 µM did it give?
**A.** Its inhibition at 12.5 µM is 6.4%.

**Q.** Cc1nc(C)c(-c2ccc3cc(-c4c(CC(=O)N5CCOCC5)cc(C(=O)NC5(C(=O)O)CCCC5)cc4C4CCCCC4)ccc3n2)s1 [Compound 10, 1-[3-cyclohexyl-4-[2-(2,4-dimethyl-thiazol-5-yl)-quinolin-6-yl]-5-(2-morpholin-4-yl-2-oxo-ethyl)-benzoylamino]-cyclopentanecarboxylic acid] was tested. Which inhibition at 12.5 µM did it give?
**A.** The inhibition at 12.5 µM was 51%.

**Q.** Which inhibition at 12.5 µM does the source give for Cc1nc(C)c(-c2ccc3cc(-c4c(CC(=O)N5CCOCC5)cc(-c5nnn[nH]5)cc4C4CCCCC4)ccc3n2)s1 [Compound 11, 2-[3-cyclohexyl-2-[2-(2,4-dimethyl-thiazol-5-yl)-quinolin-6-yl]-5-(1H-tetrazol-5-yl)-phenyl]-1-morpholin-4-yl-ethanone] here?
**A.** Its inhibition at 12.5 µM is 27%.
